Activity calls are given as the source filed them. The rule behind the calls is not given here.
Columns and labels:
[1] = molecular target: Human immunodeficiency virus type 1 reverse transcriptase (Human immunodeficiency virus 1) (UniProt Q72547); assay: Inhibition of HIV1 reverse transcriptase at 10 uM
[2] = molecular target: Human immunodeficiency virus type 1 reverse transcriptase (Human immunodeficiency virus 1) (UniProt Q72547); assay: (§1) Inhibition of HIV1 reverse transcriptase
[3] = molecular target: Human immunodeficiency virus type 1 reverse transcriptase (Human immunodeficiency virus 1, UniProt Q72547); assay: as §1
[4] = Inhibition of human DNA polymerase alpha
[5] = molecular target: Human immunodeficiency virus type 1 reverse transcriptase (Human immunodeficiency virus 1) (UniProt Q72547); assay: Increase in HIV1 reverse transcriptase activity at 1.89 uM
[6] = molecular target: Human immunodeficiency virus type 1 reverse transcriptase (Human immunodeficiency virus 1) (UniProt Q72547); assay: Increase in HIV1 reverse transcriptase activity at 18.9 uM relative to control

SMILES	Activity [2]	IC50 [3]	IC50 [4]	other results
COc1cc2cc3c(c(-c4ccc5c(c4)OCO5)c2cc1OC)C(=O)OC3OC (centres undefined)				inhibition [1]: 20%
COc1cc(-c2c(C)c(CO)c(O[C@@H]3O[C@H](CO)[C@@H](O)[C@H](O)[C@H]3O)c3cc(OC)c(OC)cc23)ccc1O	inactive			
COc1cc2c(O[C@@H]3O[C@H](CO)[C@@H](O)[C@H](O)[C@H]3O)c(CO)c(CO)c(-c3ccc4c(c3)OCO4)c2cc1OC	inactive			
COCc1cc2cc(OC)c(OC)cc2c(-c2ccc3c(c2)OCO3)c1C=O [PHYLLAMYRICIN B]		3.5 µM	289 µM	
COc1cc2c(O[C@@H]3O[C@H](CO)[C@@H](O)[C@H](O)[C@H]3O)c(CO)c(C)c(-c3ccc4c(c3)OCO4)c2cc1OC				Activity [5]: 210%; Activity [6]: 65%
COc1cc2cc3c(c(-c4ccc5c(c4)OCO5)c2cc1OC)COC3=O [RETROJUSTICIDIN B]		5.5 µM	989 µM	

From ChEMBL document CHEMBL1158260, “Six lignans from Phyllanthus myrtifolius” (J Nat Prod, 1996)
